This is an account of results in PMC9449960, “Pamoic acid is an inhibitor of HMGB1·CXCL12 elicited chemotaxis and reduces inflammation in murine models of Pseudomonas aeruginosa pneumonia” (Molecular Medicine, 2022).

Assay [1] addresses T1, HMGB1 (Mus musculus, UniProt P63158).
T1 construct: residues 1–215
T1 sequence (P63158 1-215): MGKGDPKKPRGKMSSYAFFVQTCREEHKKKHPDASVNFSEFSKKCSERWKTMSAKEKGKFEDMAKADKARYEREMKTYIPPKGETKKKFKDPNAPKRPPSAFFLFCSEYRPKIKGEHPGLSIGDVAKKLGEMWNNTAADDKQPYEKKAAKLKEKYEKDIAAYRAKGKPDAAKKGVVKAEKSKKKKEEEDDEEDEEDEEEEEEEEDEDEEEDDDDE
The assay can be described thus: NMR 1H-15N HSQC titration with lineshape analysis; STD, waterLOGSY, NOEs. The class given is binding.

Assay [2] deals with T2, CXCL12 (Homo sapiens, UniProt P48061).
T2 construct: recombinant human CXCL12
The assay can be described thus: NMR titration of […]-CXCL12 (chemical shift perturbation). Format: binding.

T2 sequence (P48061 22-93): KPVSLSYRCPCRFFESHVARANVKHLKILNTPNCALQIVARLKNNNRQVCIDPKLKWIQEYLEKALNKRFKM

In the case of `O=C(O)c1cc2ccccc2c(Cc2c(O)c(C(=O)O)cc3ccccc23)c1O` [PAM, pamoic acid], the Kd turned out to be 170 ± 17 µM in assay [1] and 66 ± 4 µM in assay [2].
